Legend:
[1] = biological target: T1, human alpha4,beta3,delta GABAA receptor (Homo sapiens, UniProt P28472+P48169); experiment: Patch-clamp (Dynaflow) on HEK-293 cells expressing GABAA receptor alpha4,beta3,delta; type: cell-based
T1 construct: expressed in transfected cells
Text: (§1) Assay for Testing GABAA Receptor Effects of 3Beta-Hydroxy-5Alpha-Pregnan-20-One on Human Alpha1,Beta,Gamma and Alpha4,Beta,Delta GABAA Receptor Subtype.
(§2) 2) in absence and in presence of the positive GABAA receptor modulating steroids Tetrahydrodeoxycorticosterone (THDOC) and 3alpha-hydroxy-5alpha-androstan-17-ol (3alpha-OH-adiol) by the Dynaflow™ system on HEK-293 cells. In these tests the protocol was optimized to be similar to the physiological conditions in the synaptic cleft.
(§3) HEK-293 cells, permanently transfected with the human alpha1,beta,gamma and alpha4,beta,delta GABAA receptor subtypes, were seeded at a density of 3×10^4/25 cm^2 in cellbind culture flask. The transfected cells were used for patch-clamp experiments 3 days after seeding. When using the cells for patch-clamp experiments the cells were washed twice with oxygen-bubbled extracellular (EC) solution (see below). About 5 mL EC was then added and the cells were kept in the incubator for about 15 minutes. After 15 minutes the cells came loose from the bottom of the flask and were separated by carefully sucking couple of times with a Pasteur pipette.
(§4) Dynaflow™ system with Resolve chip was used for patch-clamp experiments: The electrophysiological recordings from HEK-293 cells were performed under voltage-clamp conditions using patch-clamp technique and the Dynaflow™ system (Dynaflow Pro II Platform Zeiss Axiovert 25; Cellectricon AB, Sweden) with Resolve chips as application system.
(§5) Patch pipettes were pulled from borosilicate glass and polished to a resistance 2-5 MΩ when filled with suitable intracellular solution (IC) (pH was adjusted to 7.2) and immersed in bath solution (extracellular, EC) (pH is adjusted to 7.4). The recordings were made using an Axopatch 200B amplifier, a Digidata 1322A (Axon instruments, Foster city, USA). Data were acquired using the pCLAMP software sampled at 10 kHz, filtered at 2-10 kHz and analyzed with Clampfit (versions 9.0, both from Axon instruments, Foster city, USA). No higher series resistance than 20 MΩ between pipette and cell membrane was accepted. No series resistance compensation was used. The stability of series resistance was monitored repeatedly from the time course of capacitative transients during the experiments. The measured liquid-junction potential between EC and IC was subtracted in all data presented. All experiments were performed at room temperature (21-23° C.).
(§6) All steroids were dissolved to the concentration of 6 mM in DMSO. […] End solutions were the solutions added into the wells of the chip.
(§7) After compensating for the liquid junction potential a steady holding potential of −17 mV was used in all experiments. […] By using the holding potential of −17 mV and the intracellular solution with low chloride ion concentration the chloride ions flux into the cell when the receptors were activated.
(§8) The Dynaflow system allowed application of solutions for as short as 40 ms up to minutes in time.
(§9) In the experiments, THDOC and 3alpha-OH-adiol were used as the positive GABAA receptor modulating steroids.
(§10) Different incubation times were studied to achieve the optimal time for attain stable results and minimize the washout time.
(§11) Cell lines permanently expressing a functional human GABAA receptor was made in following steps. The GABAA receptor subunits alpha1, beta2 and gamma2L or alpha4, beta3 and delta including introduced Kozac sequences just before the start codons, were subcloned into mammalian expression vectors containing Geneticin, Hygromycin B, and Zeocin resistance, respectively.

[2] = biological target: T2, human alpha1,beta2,gamma2 GABAA receptor (Homo sapiens, UniProt P14867+P47870); experiment: Patch-clamp (Dynaflow) on HEK-293 cells expressing GABAA receptor alpha1,beta2,gamma2; type: cell-based; conditions: for effect by itself (Baseline shift): absence of GABA
T2 construct: expressed in transfected cells
Text: as §1, §2, §3, §4, §5, §6, §7, §8, §9, §10, §11

[3] = 1 μM 3beta-hydroxy-5alpha-pregnan-20-one

T1 sequence (P48169 36-554): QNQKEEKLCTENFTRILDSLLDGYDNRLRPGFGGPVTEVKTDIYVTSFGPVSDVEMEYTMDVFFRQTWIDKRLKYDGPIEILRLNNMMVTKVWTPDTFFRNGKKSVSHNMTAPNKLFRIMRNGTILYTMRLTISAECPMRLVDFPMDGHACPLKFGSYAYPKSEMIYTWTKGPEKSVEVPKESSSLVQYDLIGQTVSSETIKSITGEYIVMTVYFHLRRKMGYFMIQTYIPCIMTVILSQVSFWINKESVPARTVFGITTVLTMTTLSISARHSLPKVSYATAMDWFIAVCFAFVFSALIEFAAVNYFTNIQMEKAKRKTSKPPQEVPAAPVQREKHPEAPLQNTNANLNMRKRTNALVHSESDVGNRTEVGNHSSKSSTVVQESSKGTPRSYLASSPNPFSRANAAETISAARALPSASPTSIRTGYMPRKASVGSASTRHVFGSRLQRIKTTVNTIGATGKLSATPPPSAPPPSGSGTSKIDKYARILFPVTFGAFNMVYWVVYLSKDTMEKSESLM
T1 sequence (P28472 26-473): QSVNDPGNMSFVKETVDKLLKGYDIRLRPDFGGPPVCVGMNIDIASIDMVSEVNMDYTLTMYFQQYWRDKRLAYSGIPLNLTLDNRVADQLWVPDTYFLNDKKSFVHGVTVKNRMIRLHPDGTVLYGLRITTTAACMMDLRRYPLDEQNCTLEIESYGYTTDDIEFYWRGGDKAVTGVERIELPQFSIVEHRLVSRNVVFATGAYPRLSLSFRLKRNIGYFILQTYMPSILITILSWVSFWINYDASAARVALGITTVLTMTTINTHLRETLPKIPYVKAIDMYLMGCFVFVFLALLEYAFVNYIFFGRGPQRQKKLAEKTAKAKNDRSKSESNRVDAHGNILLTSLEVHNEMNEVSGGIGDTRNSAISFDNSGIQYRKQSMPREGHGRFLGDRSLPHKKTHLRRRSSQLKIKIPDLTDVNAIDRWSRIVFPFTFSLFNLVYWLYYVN
T1 sequence (O14764 17-452 partner limits assumed): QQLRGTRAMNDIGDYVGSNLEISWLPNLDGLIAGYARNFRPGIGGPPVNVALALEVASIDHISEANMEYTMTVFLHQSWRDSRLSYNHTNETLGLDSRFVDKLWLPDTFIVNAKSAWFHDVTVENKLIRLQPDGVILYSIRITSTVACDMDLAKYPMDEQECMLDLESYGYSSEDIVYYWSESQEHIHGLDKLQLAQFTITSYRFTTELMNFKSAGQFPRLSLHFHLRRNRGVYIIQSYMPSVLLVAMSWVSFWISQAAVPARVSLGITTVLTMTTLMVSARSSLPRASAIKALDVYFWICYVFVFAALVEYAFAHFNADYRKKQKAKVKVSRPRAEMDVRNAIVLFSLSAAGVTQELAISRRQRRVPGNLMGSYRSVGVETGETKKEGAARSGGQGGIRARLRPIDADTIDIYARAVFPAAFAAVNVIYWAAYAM
T2 sequence (P14867 28-456): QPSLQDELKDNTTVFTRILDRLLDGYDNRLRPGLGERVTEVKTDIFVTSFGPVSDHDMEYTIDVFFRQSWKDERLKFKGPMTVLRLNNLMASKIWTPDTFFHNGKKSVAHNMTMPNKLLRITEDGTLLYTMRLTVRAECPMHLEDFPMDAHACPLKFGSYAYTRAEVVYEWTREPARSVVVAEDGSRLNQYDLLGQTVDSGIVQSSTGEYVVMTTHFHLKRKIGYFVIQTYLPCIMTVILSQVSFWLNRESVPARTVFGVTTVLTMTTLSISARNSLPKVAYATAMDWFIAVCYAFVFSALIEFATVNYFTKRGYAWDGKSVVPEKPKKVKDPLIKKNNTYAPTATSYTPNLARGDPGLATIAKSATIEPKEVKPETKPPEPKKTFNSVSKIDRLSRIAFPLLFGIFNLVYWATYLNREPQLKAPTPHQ
T2 sequence (P47870 25-512 limits assumed): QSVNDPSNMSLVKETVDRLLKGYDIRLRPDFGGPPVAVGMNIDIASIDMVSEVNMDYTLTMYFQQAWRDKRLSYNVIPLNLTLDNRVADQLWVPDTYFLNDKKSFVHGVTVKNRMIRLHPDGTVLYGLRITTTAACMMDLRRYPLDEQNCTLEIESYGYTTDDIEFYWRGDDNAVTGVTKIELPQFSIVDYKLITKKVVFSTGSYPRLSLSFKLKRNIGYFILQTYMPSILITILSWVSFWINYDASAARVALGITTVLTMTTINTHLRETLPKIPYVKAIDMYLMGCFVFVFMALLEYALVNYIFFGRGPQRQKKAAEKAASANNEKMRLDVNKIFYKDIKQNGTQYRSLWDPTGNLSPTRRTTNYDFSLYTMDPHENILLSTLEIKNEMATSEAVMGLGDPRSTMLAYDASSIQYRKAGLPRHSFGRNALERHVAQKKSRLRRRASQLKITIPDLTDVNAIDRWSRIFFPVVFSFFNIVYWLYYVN
T2 sequence (P18507 40-475 partner): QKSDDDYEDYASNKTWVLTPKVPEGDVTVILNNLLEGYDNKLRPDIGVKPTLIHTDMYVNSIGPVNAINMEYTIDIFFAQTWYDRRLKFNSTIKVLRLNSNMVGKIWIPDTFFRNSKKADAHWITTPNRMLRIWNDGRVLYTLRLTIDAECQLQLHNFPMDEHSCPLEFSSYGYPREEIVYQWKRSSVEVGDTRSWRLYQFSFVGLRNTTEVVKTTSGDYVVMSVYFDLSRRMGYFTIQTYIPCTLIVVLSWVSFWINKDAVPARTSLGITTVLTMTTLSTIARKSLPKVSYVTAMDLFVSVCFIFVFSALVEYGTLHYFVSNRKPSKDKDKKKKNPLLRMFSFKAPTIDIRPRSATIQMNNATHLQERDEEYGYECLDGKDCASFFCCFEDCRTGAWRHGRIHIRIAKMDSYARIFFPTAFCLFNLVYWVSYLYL

SMILES: CC(=O)[C@H]1CC[C@H]2[C@@H]3CC[C@H]4C[C@@H](O)CC[C@]4(C)[C@H]3CC[C@]12C [3beta-hydroxy-5alpha-pregnan-20-one]
- Effect on 0.6 μM Androstandiol + 3 μM GABA [1, 3]: −18 ± 2.0%
- Effect on 0.8 μM Androstandiol + 3 μM GABA [1, 3]: −22 ± 2.6%
- Effect by itself (current response) ([1]; 1 μM 3beta-hydroxy-5alpha-pregnan-20-one alone, N=11, NS vs EC solution): −0.4±0.3 pA
- Effect on 3 μM GABA response ([1]; 1 μM 3beta-hydroxy-5alpha-pregnan-20-one, N=11, NS): −6.7 ± 3.3%
- Effect on GABA alone (in words) ([1]; 1 μM 3beta-hydroxy-5alpha-pregnan-20-one, data not shown): without any significant effect
- Effect on 0.1 μM THDOC + 3 μM GABA ([1]; 1 μM 3beta-hydroxy-5alpha-pregnan-20-one, steady state): −26 ± 2.4%
- Effect on 0.1 μM THDOC alone baseline ([1]; 1 μM 3beta-hydroxy-5alpha-pregnan-20-one, without GABA): −43 ± 3.5%
- Antagonism of THDOC enhanced GABA effect (max, concentration-dependent experiment) ([2]; 1 μM 3beta-hydroxy-5alpha-pregnan-20-one + 30 μM GABA + 200 nM THDOC, n=10): −21±4.6%
- Effect on 8 μM Androstandiol + 30 μM GABA ([2]; 1 μM 3beta-hydroxy-5alpha-pregnan-20-one, phasic effect): −30 ± 1.7%
- Effect on 8 μM Androstandiol, baseline shift ([2]; 1 μM 3beta-hydroxy-5alpha-pregnan-20-one, tonic effect, without GABA): −33 ± 7.6%
- Imax, antagonism of THDOC effect ([2]; 0.1-1 μM 3beta-hydroxy-5alpha-pregnan-20-one + 30 μM GABA + 200 nM THDOC): −21%
- Antagonism of THDOC enhanced GABA effect (single dose) ([2]; single dose 1 μM + 30 μM GABA + 200 nM THDOC, n=6): −22.3±5.3%

SMILES: C[C@]12CC[C@@H](O)C[C@@H]1CC[C@@H]1[C@@H]2CC[C@]2(C)C(O)CC[C@@H]12 (stereo partly drawn) [Androstandiol, 3alpha-hydroxy-5alpha-androstan-17-ol]
- Baseline shift (current response in absence of GABA) ([1]; 3 μM androstandiol): +8 ± 3.6 pA
- Baseline shift (current response in absence of GABA) ([1]; 10 μM androstandiol): +13 ± 4.8 pA
- Potency at alpha4,beta3,delta relative to alpha1,beta2,gamma2 (higher) ([1]; enhancement of GABA-mediated current): 10 times
- effect by itself (Baseline shift) ([2]; 3 μM androstandiol): +8 ± 3.6 pA
- effect by itself (Baseline shift) ([2]; 8 μM androstandiol): +13 ± 2.3 pA
- effect by itself (Baseline shift) ([2]; 10 μM androstandiol): +11 ± 1.5 pA
- effect by itself (Baseline shift) ([2]; 30 μM androstandiol): +24 ± 6.8 pA
- effect by itself (Baseline shift) ([2]; 100 μM androstandiol): +43 ± 5.7 pA
- Potency relative to THDOC (less potent) ([2]; enhancing the effect of GABA, 30 μM GABA): 48 times

SMILES: C[C@]12CC[C@@H](O)C[C@H]1CC[C@@H]1[C@@H]2CC[C@]2(C)[C@@H](C(=O)CO)CC[C@@H]12 [THDOC, Tetrahydrodeoxycorticosterone]
- Baseline shift (current response in absence of GABA) ([1]; 0.03 μM THDOC): +5 ± 3.3 pA
- Baseline shift (current response in absence of GABA) ([1]; 0.1 μM THDOC): +15 ± 9.5 pA
- Baseline shift (current response in absence of GABA) ([1]; 0.3 μM THDOC): +12 ± 7.9 pA
- Baseline shift (current response in absence of GABA) ([1]; 1 μM THDOC): +69 ± 35 pA
- Emax, enhancement of GABA mediated current response ([1]; THDOC + 3 μM GABA): 297%
- EC50 ([1]; read-out: EC50, enhancement of GABA mediated current response, THDOC + 3 μM GABA): 47 nM
- Emax, enhancement of GABA mediated current ([2]; 0.03-1 μM THDOC + 30 μM GABA): +115%
- EC50 ([2]; read-out: EC50, enhancement of GABA mediated current, 0.03-1 μM THDOC + 30 μM GABA): 70 nM

— patent publication US11026954B2, “3-beta-hydroxy-5-alpha-pregnan-20-one for use in medical treatment” (ASARINA PHARMA AB, priority 2017, dated 2021)
